# Like-named read-outs stand apart in the source and are kept apart here.
# Experiments:
# [1] = system: human conjunctival cell line (Wong-Kilbourne derivative of Chang conjunctiva); assay: Hoechst 33342 test (chromatin condensation, with propidium iodide); type: cell-based; conditions: for chromatin condensation compared to control cells: up to 1 µg/ml; for chromatin condensation: increasing concentrations >1 µg/ml
# Protocol: (§1) Normal culture development was assessed daily by phase-contrast microscopy. Confluent cultures were removed by gentle trypsin incubation, and cells were counted. For cytotoxicity experiments, cells were seeded into 96-well culture plates (18'000 cells per well; Nunc, Roskild, Denmark) until sub-confluence (culture surface covering nearly 70%) and were then exposed to the different formulations. Experiments were performed by microplate cold light fluorometry (Fluorolite 1000 Dynex; Issy-les-Moulineaux, France), as previously validated (Debbasch et al., 2001, Invest. Ophthalmol. Vis. Sci., 42, 642-652). According to the recommendations of the European Center for the Validation of Alternative Methods (ECVAM) and to previously validated methods in the Chang cell line, two cellular markers were evaluated: cellular viability and chromatin condensation. Cellular viability was evaluated with a neutral red (Fluka, Ronkonkoma, NY) test with fluorometric detection (excitation: 535 nm; emission: 600 nm). Hoechst 33342 (Molecular Probes, Eugene, OR) is an intercalating dye, which allows the determination of the total chromatin quantity variations and the degree of chromatin condensation. […] was used on cells at a final concentration of 10 µg/ml (excitation: 360 nm; emission: 450 nm). 0.5 mg/ml propidium iodide (Roche Diagnostics Corp., Meylan, France) was added to the Hoechst solution, to control necrotic cells, as previously validated. The supravital uptake of Hoechst 33342 combined with extrusion of propidium iodide was used as an assay for apoptosis as described in Belloc et al., 1994, Cytometry, 17, 59-65. […] It is defined by a series of cellular changes: (a) the cell shrinks, looses contact with neighbouring cells or surrounding matrix and starts to display intracellular proteins on its surface; (b) the chromatin in the nucleus condenses and the DNA is cleaved into small fragments; (c) the plasma membrane then begins to show a bubbled appearance and small membrane bound bodies break off containing intracellular material which can include nuclear matter and cellular organelles. These fragments are known as "apoptotic bodies" which are quickly removed by phagocytes or by neighbouring cells.
# The value of IC50 (concentration inhibiting 50% of cell population) was used to compare 5-FU and 5-CU cytotoxicities. Dulbecco's minimum essential medium was used as a control, and was used to dilute the tested molecules.
# [2] = system: human conjunctival cell line (Wong-Kilbourne derivative of Chang conjunctiva); assay: Neutral red test (cellular viability); type: cell-based; conditions: for cell viability decrease: concentrations up to 10 µg/ml; for IC50: Homo sapiens, 72 hours of exposure
# Protocol: as §1
# In these experiments, cell viability and chromatin condensation were evaluated after a 24 and 72 hour-incubation, with […] of 5-chlorouracil as compared with the same concentrations of 5-fluorouracil. The value of IC50 (concentration inhibiting 50% of cell population) was used to compare 5-FU and 5-CU cytotoxicities. Dulbecco's minimum essential medium was used as a control, and was used to dilute the tested molecules.
# [3] = system: rabbit Tenon's capsule fibroblasts; conditions: for cell death: sub-confluent fibroblasts, 24 hours
# Protocol: Cells were seeded at a density of 2 x 10^4 cells / well until reaching subconfluency and were then treated with 5-chlorouracil (5-CU) or with 5-fluorouracil (5-FU) at different concentrations (0, 0.5, 5, 50, 500, 1'000 or 5'000 µg/ml) for 24 hours.
# MTT (Sigma) (1mg/ml in PBS) was added to the wells and plates were incubated at 37°C for 1 hour. Isopropanol was then added and mixed thoroughly to dissolve the dark blue crystals and the plates were rapidly read on a BIO-RAD Model 450 Microplate reader, using a test wavelength of 570 nm and a reference wavelength of 630 nm.
# [4] = In vitro rate of release from POE IV formulation; type: physicochemical
# Protocol: Formulations were prepared under a laminar airflow hood. […] The viscous mixture was conditioned in a 1.0 ml syringe, each sample being 200µl (240 mg). In a preliminary investigation, the in vitro rate of release of 5-CU was determined according to the procedure described by Merkli et al., 1998, J. Control. […] 5-FU in vitro rate of release from POE IV has also previously been described by Heller et al, 2005, Adv. Drug Delivery Rev., 57(14)2053-62.
# rabbit fibroblasts = assay: Trypan blue exclusion test / cell counting, fibroblast proliferation; conditions: for concentration at which inhibition of cell proliferation is significant: 24 hours exposure; for inhibition at 10 µg/mL / inhibition at 20 µg/mL / inhibition at 100 µg/mL: Oryctolagus cuniculus, Fibroblast, 24 h, read-out: inhibition of cell proliferation
# [5] = same conditions, Heller et al., 2005; cited from earlier work
# [6] = sub-conjunctival injection, cited from earlier work
# [7] = Hoechst and neutral red results combined, 72 hours of exposure
# [8] = Hoechst test, high concentrations
Structure (SMILES),chromatin condensation compared to control cells ([1]; 24 hours),"type of cell death induced [1, 7]","type of cell death induced [1, 8]",cell viability decrease ([2]; 24 hour-incubation),IC50 [2],concentration at which inhibition of cell proliferation is significant (rabbit fibroblasts),inhibition at 10 µg/mL (rabbit fibroblasts),inhibition at 20 µg/mL (rabbit fibroblasts),inhibition at 100 µg/mL (rabbit fibroblasts),other results
"O=c1[nH]cc(Cl)c(=O)[nH]1 [5-CU, 5-chloro-1H-pyrimidine-2,4-dione]",no significant difference,apoptotic cell death,apoptotic cell death,about 20%,2500 µg/mL,≥ 10 µg/mL,23%,23%,25%,"Hoechst fluorescence compared with identical 5-FU concentrations ([1]; 24 hours, increasing concentrations up to 1'000 µg/ml, P=0.0079): very significant increase; cell death ([2]; 24 hour-incubation, 1'000 µg/ml): 35%; cell death ([2]; 72 hour-incubation, 4 mg/ml (highest concentration)): 75%; times less toxic to non-proliferating cells than 5-FU ([3]; rabbit, 24 h): 1'000 times; cell death ([3]; 5'000 µg/ml): 33%; daily release rate ([4]; 1% 5-CU from POE IV formulation, for up to forty days): approximately 8 µg/day; in vitro rate of release ([4]; from POE IV, 1% wt/wt, over a period of up to 40 days, preliminary investigation): 8 micrograms per day"
"O=c1[nH]cc(F)c(=O)[nH]1 [5-FU, 5-fluorouracil]",no significant difference,apopto-necrotic cell death,necrotic cell death,about 20%,7 µg/mL,≥ 10 µg/mL,28%,40%,43%,"chromatin condensation ([1]; 24 hours, P=0.0079): dose-dependant significant decrease; chromatin condensation ([1]; 72 hours, P=0.02): dose-dependant significant decrease; cell death ([2]; 24 hour-incubation, 100 µg/ml): 55%; cellular viability ([2]; 72 hour-incubation, 1 µg/ml): significantly decreased; cell death ([3]; 5 µg/ml): 39.1%; cell death ([3]; 50 µg/ml): 51%; in vitro rate of release from POE IV [5]: 100 µg per day; corneal levels ([6]; at 1 hour): 20 µg/g; corneal levels ([6]; at 24 hours): 5 µg/g; time for which ID50 levels are maintained ([6]; at the injection site and 180° from it): up to 24 hours"

# — patent EP2042178A1, “Ocular formulations comprising 5-chlorouracil and use thereof” (INSTITUT NATIONAL DE LA SANTE ET DE LA RECHERCHE MEDICALE …, priority 2007, dated 2009)
